# According to patent US11229664B2, “Treatment of myelosuppression” (priority 2012, dated 2022):
# “And” between values parts separate entries of the source, which are not always exact repeats. Equal entries are not always repeated.
# Test system: platelets
# Experiment: Clinical trial, metastatic pancreatic cancer: platelet count / thrombocytopenia grade
# Format: in vivo, human
# Design: Platelet count at start of cycle, Cycle 1: unit not given here; Platelet count at start of cycle, Cycle 4 / Platelet count: unit: ×10^3/μl blood
# From the text: Male and non-pregnant, non-lactating, female patients, aged 18 to 75, with histologically confirmed metastatic adenocarcinoma of the pancreas were enrolled in the trial. […] Treatment consisted of a series of 28-day cycles, wherein the last day of one cycle (e.g., day 28, cycle 1) was immediately followed by the first day of the next cycle (e.g., day 1, cycle 2). […] Nab-paclitaxel and gemcitabine therapy was given as described in the prescribing information for Abraxane® and Gemzar®. See also, Von Hoff et al., 2011, J. […] As a substantially non-anticoagulant heparinoid, ODSH can be administered at a dose that is greater than the fully anticoagulant dose of unfractionated heparin, without concern for anticoagulant effect, as shown in the Results below. An initial run-in period was conducted in which ten patients were treated with the gemcitabine, nab-paclitaxel, and ODSH regimen described above. After all ten patients had completed at least one 28-day cycle, the data were reviewed and an open-label randomized study initiated, with two arms (ODSH arm and Control arm). In the ODSH arm, the dosing regimen was the same as in the run-in period (gemcitabine, nab-paclitaxel, and ODSH). In the Control arm, patients were given the same gemcitabine and nab-paclitaxel regimen as in the run-in period, but without ODSH. […] Platelet counts, total white blood cell counts, and absolute neutrophil counts were performed. Grading of thrombocytopenia and/or neutropenia was performed according to the following standards: [table]
# [1] = ODSH 4 mg/kg bolus + 0.375 mg/kg/hr 48 h, adjunct to gemcitabine/nab-paclitaxel
# [2] = ODSH adjunct to gemcitabine/nab-paclitaxel
# [3] = ODSH adjunctive to gemcitabine and nab-paclitaxel, blood drawn before treatment that day, individual patients
# [4] = all samples (FIG. 10A), ODSH adjunct to gemcitabine/nab-paclitaxel
substance,measurement,setting,value
"substantially 2-O, 3-O desulfated heparin [ODSH]",Patients with platelet count at beginning of fourth cycle greater than at beginning of first cycle,[1],9 out of 10
same,Patients with platelet count at beginning of third cycle greater than at beginning of first cycle,[1],Eight out of 9
same,Patients with platelet count at beginning of second cycle greater than at beginning of first cycle,"ODSH 4 mg/kg bolus + 0.375 mg/kg/hr 48 h, days 1, 8, 15 of 28-day cycles, adjunct to gemcitabine/nab-paclitaxel",Ten out of 10 and 10/10
same,Patients exhibiting thrombocytopenia at the start of the second cycle,[2],None
same,Patients exhibiting thrombocytopenia at the start of the third cycle,[2],one of 8
same,Patients with platelet counts higher at the beginning of cycle 3 than at the beginning of cycle 2,[2],6/9
same,"Platelet Count, Cycle 1 Day 1","ODSH adjunctive to gemcitabine and nab-paclitaxel, blood drawn before treatment administration (before any chemotherapy), individual patients",313 ×10^3/μl blood and 264 ×10^3/μl blood and 191 ×10^3/μl blood and 274 ×10^3/μl blood and 276 ×10^3/μl blood and 120 ×10^3/μl blood and 271 ×10^3/μl blood and 342 ×10^3/μl blood and 429 ×10^3/μl blood and 180 ×10^3/μl blood
same,"Platelet Count, Cycle 1 Day 8",[3],205 ×10^3/μl blood and 167 ×10^3/μl blood and 108 ×10^3/μl blood and 150 ×10^3/μl blood and 239 ×10^3/μl blood and 86 ×10^3/μl blood (2×) and 230 ×10^3/μl blood and 206 ×10^3/μl blood and 214 ×10^3/μl blood
same,"Platelet Count, Cycle 1 Day 15",[3],135 ×10^3/μl blood and 178 ×10^3/μl blood and 108 ×10^3/μl blood and 75 ×10^3/μl blood and 220 ×10^3/μl blood and 76 ×10^3/μl blood and 181 ×10^3/μl blood and 134 ×10^3/μl blood and 260 ×10^3/μl blood and 63 ×10^3/μl blood
same,"Platelet Count, Cycle 2 Day 1",[3],419 ×10^3/μl blood and 322 ×10^3/μl blood and 312 ×10^3/μl blood and 574 ×10^3/μl blood and 445 ×10^3/μl blood and 175 ×10^3/μl blood and 417 ×10^3/μl blood and 614 ×10^3/μl blood and 532 ×10^3/μl blood and 274 ×10^3/μl blood
same,"Platelet Count, Cycle 2 Day 8",[3],434 ×10^3/μl blood and 336 ×10^3/μl blood and 241 ×10^3/μl blood and 424 ×10^3/μl blood and 05 ×10^3/μl blood and 83 ×10^3/μl blood and 402 ×10^3/μl blood and 375 ×10^3/μl blood and 257 ×10^3/μl blood and 95 ×10^3/μl blood
same,"Platelet Count, Cycle 2 Day 15",[3],209 ×10^3/μl blood and 207 ×10^3/μl blood and 132 ×10^3/μl blood and 167 ×10^3/μl blood and 186 ×10^3/μl blood (2×) and 70 ×10^3/μl blood and 178 ×10^3/μl blood and 170 ×10^3/μl blood and 54 ×10^3/μl blood
same,"Platelet Count, Cycle 3 Day 1",[3],510 ×10^3/μl blood and 327 ×10^3/μl blood and 362 ×10^3/μl blood and 655 ×10^3/μl blood and 418 ×10^3/μl blood and 123 ×10^3/μl blood and 487 ×10^3/μl blood and 628 ×10^3/μl blood and 387 ×10^3/μl blood and −361 ×10^3/μl blood
same,"Platelet Count, Cycle 3 Day 8",[3],435 ×10^3/μl blood and 325 ×10^3/μl blood and 362 ×10^3/μl blood (2×) and 388 ×10^3/μl blood and 223 ×10^3/μl blood and 119 ×10^3/μl blood and 355 ×10^3/μl blood and 371 ×10^3/μl blood and 179 ×10^3/μl blood
same,"Platelet Count, Cycle 3 Day 15",[3],207 ×10^3/μl blood and 170 ×10^3/μl blood and 163 ×10^3/μl blood and 188 ×10^3/μl blood and 171 ×10^3/μl blood (2×) and 63 ×10^3/μl blood and 172 ×10^3/μl blood and 189 ×10^3/μl blood and 71 ×10^3/μl blood
same,"Platelet Count, Cycle 4 Day 1",[3],586 ×10^3/μl blood and 402 ×10^3/μl blood and 292 ×10^3/μl blood and 478 ×10^3/μl blood and 667 ×10^3/μl blood and 184 ×10^3/μl blood and 406 ×10^3/μl blood and 626 ×10^3/μl blood and 382 ×10^3/μl blood and 387 ×10^3/μl blood
same,"Platelet Count, Cycle 4 Day 8",[3],464 ×10^3/μl blood and 339 ×10^3/μl blood and 355 ×10^3/μl blood and 468 ×10^3/μl blood and 193 ×10^3/μl blood and 188 ×10^3/μl blood and 507 ×10^3/μl blood and 448 ×10^3/μl blood and 185 ×10^3/μl blood
same,"Platelet Count, Cycle 4 Day 15",[3],203 ×10^3/μl blood and 170 ×10^3/μl blood and 140 ×10^3/μl blood and 163 ×10^3/μl blood and 149 ×10^3/μl blood and 129 ×10^3/μl blood and 339 ×10^3/μl blood and 169 ×10^3/μl blood and 202 ×10^3/μl blood and 78 ×10^3/μl blood
same,"Platelet Count, Cycle 5 Day 1",[3],499 ×10^3/μl blood and 351 ×10^3/μl blood and 266 ×10^3/μl blood and 389 ×10^3/μl blood and 275 ×10^3/μl blood and 106 ×10^3/μl blood and 512 ×10^3/μl blood and 607 ×10^3/μl blood and 427 ×10^3/μl blood and −288 ×10^3/μl blood
same,"Platelet Count, Cycle 5 Day 8",[3],231 ×10^3/μl blood and 288 ×10^3/μl blood and 241 ×10^3/μl blood and 325 ×10^3/μl blood and 192 ×10^3/μl blood and 94 ×10^3/μl blood and 378 ×10^3/μl blood and 377 ×10^3/μl blood and 403 ×10^3/μl blood and 188 ×10^3/μl blood
same,"Platelet Count, Cycle 5 Day 15",[3],132 ×10^3/μl blood and 169 ×10^3/μl blood and 153 ×10^3/μl blood and 109 ×10^3/μl blood and 58 ×10^3/μl blood and 193 ×10^3/μl blood and 194 ×10^3/μl blood and 72 ×10^3/μl blood
same,"Platelet Count, Cycle 6 Day 1",[3],288 ×10^3/μl blood and 370 ×10^3/μl blood and 294 ×10^3/μl blood and 489 ×10^3/μl blood and 114 ×10^3/μl blood and 371 ×10^3/μl blood and 503 ×10^3/μl blood and 275 ×10^3/μl blood
same,"Platelet Count, Cycle 6 Day 8",[3],384 ×10^3/μl blood and 321 ×10^3/μl blood and 207 ×10^3/μl blood and 336 ×10^3/μl blood and 85 ×10^3/μl blood and 313 ×10^3/μl blood and 493 ×10^3/μl blood and 148 ×10^3/μl blood
same,"Platelet Count, Cycle 6 Day 15",[3],169 ×10^3/μl blood and 162 ×10^3/μl blood and 128 ×10^3/μl blood and 102 ×10^3/μl blood and 54 ×10^3/μl blood and 338 ×10^3/μl blood and 164 ×10^3/μl blood and 72 ×10^3/μl blood
same,Mean and median platelet counts at day 15 of treatment cycles 2 and 3,[4],remained in the normal range
same,Mean and median platelet counts on the first day of treatment cycles 2 and 3,[4],"above 150,000"
same,"Platelet count at start of cycle, Cycle 1","day 1 of cycle 1, before any chemotherapy, ODSH adjunctive to gemcitabine and nab-paclitaxel, individual patients",264 and 191 and 274 and 276 and 120 and 271 and 342 and 429 and 180 and 313
same,"Platelet count at start of cycle, Cycle 2","day 1 of cycle 2, ODSH adjunctive to gemcitabine and nab-paclitaxel, individual patients",322 and 312 and 574 and 445 and 175 and 417 and 614 and 537 and 274 and 419
same,"Platelet count at start of cycle, Cycle 3","day 1 of cycle 3, ODSH adjunctive to gemcitabine and nab-paclitaxel, individual patients",327 and 362 and 655 and 418 and 123 and 628 and 387 and 361 and 510
same,"Platelet count at start of cycle, Cycle 4","day 1 of cycle 4, ODSH adjunctive to gemcitabine and nab-paclitaxel, individual patients",402 and 292 and 478 and 667 and 184 and 406 and 626 and 382 and 387 and 586
same,"Platelet count at start of cycle, Cycle 5","day 1 of cycle 5, ODSH adjunctive to gemcitabine and nab-paclitaxel, individual patients",351 and 389 and 275 and 512 and 427 and 288 and 499
